Measured values reported in patent publication US10322143B2, “Inhibitors of ADAMTS4 or ADAMTS5 for use in preventing or treating cardiac remodeling and chronic heart failure” (Universitetet i Oslo, priority 2013, dated 2019).
Marks after values point to notes of the source that are not given here.

Tests used:
ADAMTS5 mRNA = ADAMTS5 mRNA level (qRT-PCR) in MI rats; assay type: in vivo, rat; conditions: PPS-treatment
Procedure: (§1) At day 0 to 3 (median 2) after surgery, infarct size was quantified by echocardiography using the Vevo2100 system (Visualsonics Inc, Canada) and magnetic resonance imaging (MRi) using a 9.4 T/210 mm/ASR horizontal bore magnet (Agilent Technologies, Inc., USA). Initially, echocardiography was performed to select moderate to large infarcts ranging approximately 40 to 50%. Thereafter, infarct sizes were exactly measured by late-enhancement gadolinium MRi analyses (Bohl S., et al. American Journal of Physiology, 2009; 296 (4): H1200-H1208) and stratified into small infarcts (stratum 1: <43%, stratum 2: 43-48%), and large infarcts (stratum 3: 48-53%, stratum 4: >53%). The rats in each MI stratum and sham group were randomized to receive intervention or control treatment. The intervention group was treated with 6 mg/kg of sodium PPS (Interfarm AS, Norway), while the control group received vehicle (0.9% NaCl), both injected subcutaneously every third day starting from post-operative day 8-10.
(§2) The mRNA levels of the ADAMTS versicanases ADAMTS1, -4, -5, -8, and -20 (Shiomi T, et al. Pathology International 2010; 60(7):477-96), versican, aggrecan, syndecan-4, tissue inhibitor metalloprotease (TIMP)-3, and membrane-type (MT)4-MMP, were quantified in rat left ventricle by qRT-PCR, as previously described in Example 1.

MT4-MMP mRNA = MT4-MMP mRNA level (qRT-PCR) in MI rats; assay type: in vivo, rat; conditions: PPS-treatment
Procedure: as §1, §2

[1] = system: myocardial infarction rats; test: Myocardial infarction rat model: echocardiography, MRI and organ weights after PPS-treatment; assay type: in vivo; conditions: for EDV (end-diastolic volume, MRI) / Heart weight / LAD (left atrial diameter) / LVDd (left ventricular diameter at diastole) / Lung weight / Max. syst velocity (maximum systolic velocity) / RV weight / VTI (velocity time integral): median (interquartile range)
Text: Male Wistar rats weighing 160-170 grams (approximately 7 weeks old) (Taconic, Skensved Denmark) underwent MI (myocardial infarction) by left coronary artery ligation as described previously (Sjaastad I, et al. J Appl Physiol 2000 October; 89(4):1445-54). In all surgical procedures performed, a mixture of 67% N2O, 28% O2, and 4% isoflurane in an anesthesia chamber was used for preoperative sedation. To maintain anesthesia preoperatively, a mixture of 69% N2O, 29% O2, and 2% isoflurane was given by the endotracheal tube and the animals were ventilated on a respirator (Zoovent, Triumph Technical Services, Milton Keynes, UK). Buprenorphine (0.2 mg/kg) was given as postoperative analgesia after MI. Rats were housed in cages (one or two rats in each cage) with Bee Kay bedding (Scanbur B K, Nittedal, Norway) in 55% humidity on a 12 h light/dark cycle, with food pellets (RM1, 801151, Scanbur B K) and water ad libitum.
as §1
After receiving PPS- or vehicle-treatment for 51 to 56 days (median 55 days), rats were sacrificed after examination by experienced investigators blinded to treatment group. In vivo heart function was evaluated as previously described with echocardiography (Sjaastad I, et al., J Appl Physiol 2000 October; 89(4):1445-54) and MRi (Espe E., Journal of Cardiovascular Magnetic Resonance 2013; 15(1):82). Thereafter, the heart and lung was excised under deep anesthesia, washed in saline and blotted dry to remove blood in the cardiac chambers. The heart chambers were separated by rapid dissection, before left ventricles were divided into infarcted and viable tissue. Lungs and cardiac tissue were snap-frozen in liquid nitrogen and stored at −70° C. until RNA and protein analyses.

[2] = system: ADAMTS1, -5, -8, versican, aggrecan, HAS-1, HAS-2, TIMP-3 and MT4-MMP mRNA; test: Myocardial mRNA expression of other ADAMTS, proteoglycans and modulators (qRT-PCR) in aortic banding rats; assay type: in vivo, rat; conditions: AB-rats, PPS-treatment vs vehicle
Procedure: Three days after AB, rats were stratified by the gradient over the stenosis to ensure similar degree of cardiac stress. Two and two stratified rats were randomized to either 6 mg/kg of the sulfated polysaccharide sodium pentosan polysulfate (PPS) (Interfarm AS, Norway) or vehicle (0.9% NaCl) injected subcutaneously every third day. […] Six weeks after AB or sham operation, the rats were examined by echocardiography and postmortem analysis, performed by experienced investigators (IS, JMA) blinded to treatment group.
In addition, mRNA levels of proteins known to modulate ADAMTS activity or versican function were measured; tissue inhibitor of metalloprotease (TIMP)-3, hyaluronic acid (HA) synthase 1 and 2, and membrane-type (MT)4-MMP, while mRNA levels of ADAMTS1, -4, and versican were quantified in NFB and NCM.
Total RNA was isolated from the left ventricle in AB rats, neonatal rat cardiomyocytes and fibroblasts (RNeasy mini kit, Qiagen, Valencia, Calif.). […] The results were detected on an ABI PRISM 7900 Sequence Detection System (Applied Biosystems, CA).

[3] = MI strata 1 + 2 (small infarcts) PPS, 6 mg/kg s.c. every third day from day 8-10
[4] = MI strata 3 + 4 (large infarcts) PPS, 6 mg/kg s.c. every third day from day 8-10
[5] = Sham PPS, 6 mg/kg s.c. every third day
[6] = rats with large infarcts, PPS vs vehicle

pentosan polysulfate [PPS] was tested, and the “ADAMTS5 mRNA levels” value (ADAMTS5 mRNA) was “decreased”, the “mRNA levels of MT4-MMP” value (MT4-MMP mRNA) was “decreased” and the “side effects including hemorrhage” value ([1]; MI rats, 6 mg/kg s.c. every third day, observed daily) was “no side effects”. The “EDV (end-diastolic volume, MRI)” value [1, 3] was 614 (524-707), the Heart weight [1, 3] was 1610 (1450-1760) mg and the “LAD (left atrial diameter)” value [1, 3] was 5.32 (4.25-6.50) mm. The “LVDd (left ventricular diameter at diastole)” value (shortened to “LVDd”) [1, 3] was 9.91 (9.50-10.29) mm, the Lung weight [1, 3] was 1930 (1450-3420) mg and the “Max. syst velocity (maximum systolic velocity)” value (from here on “Max. syst velocity”) [1, 3] was 39.7 (28.3-57.5). The RV weight [1, 3] was 300 (180-345) mg, the “VTI (velocity time integral)” value [1, 3] was 57.9 (50.8-69.6) mm and the “EDV (end-diastolic volume, MRI)” value [1, 4] was 644 (552-709). The Heart weight [1, 4] was 1595 (1475-1710) mg, the “LAD (left atrial diameter)” value [1, 4] was 6.88 (5.51-7.31) mm and the “LVDd” value [1, 4] was 10.25 (9.51-10.75) mm. The Lung weight [1, 4] was 2770 (1990-3385) mg, the “Max. syst velocity” value [1, 4] was 41.7 (31.2-52.0)* and the RV weight [1, 4] was 395 (355-523) mg. For the same substance, the “VTI (velocity time integral)” value [1, 4] was 69.8 (51.1-75.9)* mm, the “EDV (end-diastolic volume, MRI)” value [1, 5] was 293 (256-346) and the Heart weight [1, 5] was 1005 (980-1248) mg. The “LAD (left atrial diameter)” value [1, 5] was 3.67 (3.45-3.73) mm, the “LVDd” value [1, 5] was 6.91 (6.60-7.88) mm and the Lung weight [1, 5] was 1255 (1158-1280) mg. The “Max. syst velocity” value [1, 5] was 64.0 (46.6-67.2), the RV weight [1, 5] was 168 (160-208) mg and the “VTI (velocity time integral)” value [1, 5] was 58.5 (53.9-65.5) mm. The “reduction in heart weight” value ([1]; rats with large infarcts, PPS vs corresponding vehicle-treated rats) was about 25%, the “maximum systolic velocity after PPS-treatment” value [1, 6] was “improved” and the “reduction in left atrial diameter” value [1, 6] was 10%. For the same substance, the “reduction in lung weight” value [1, 6] was 1/3, the “velocity time integral after PPS-treatment” value [1, 6] was “improved” and the “mRNA levels of ADAMTS1, -5, -8, versican, aggrecan, HAS-1, HAS-2, TIMP-3 and MT4-MMP” value [2] was “not affected”.
